Results published in article PMC8765437, “GSK3640254 Is a Novel HIV-1 Maturation Inhibitor with an Optimized Virology Profile” (Antimicrobial Agents and Chemotherapy, 2022).
Read-outs that look alike come from different tables or passages of the source.

Test system: NLRepRlucP373S viruses containing Gag SDMs or gag/pr genes from clinical isolates
Experiment: Multiple-cycle replication assay, NLRepRluc reporter viruses in MT-2 cells, luciferase endpoint
Assay type: cell-based, HIV-1
Text: Multiple-cycle assays using recombinant viruses or clinical isolates were used to assess MI antiviral activity as described previously ([10]). pNLRepRlucP373S (the P373S change is in the Gag gene and converts an outlier polymorphism in the NL4-3 gene to the prevalent amino acid in the population) plasmids containing SDMs in Gag or gag/pr regions from clinical isolates were transfected into HEK 293T cells, and the supernatant containing recombinant virus was harvested after 4 to 5 days. Virus was used to infect MT-2 cells in the presence of a 3-fold serially diluted compound at a final dimethyl sulfoxide (DMSO) concentration of 1%. The inocula of the reporter viruses were determined based on the luciferase activity detected on day 4 postinfection. The MOI (ratio of infectious virions to target cells) of reporter-free laboratory strains and clinical isolates was 0.005, as derived from a tissue culture infectious dose study. Clinical isolates or reporter-free viruses were examined in the reporter CEM-NKR-CCR5-Luc cells or PBMCs at MOIs ranging from 0.005 to 0.01. Each infection started with a drug-free preincubation of the cell-virus mixtures, performed at 37°C and 5% CO2 for either 1 h at 2 times the final cell density (reporter viruses) or 1 h (reporter-free laboratory strains) or 3 h (clinical isolates) using cell pellets in 0.5 mL of medium. After preincubation, cell-virus mixtures were added to compound-containing 96-well plates for a final cell density of either 10,000 (MT-2 cells for reporter viruses), 20,000 (MT-2 and PM1 cells for reporter-free laboratory strains), 200,000 (PBMCs for clinical isolates), or 500,000 (CEM-NKR-CCR5-Luc for reporter-free laboratory strains) cells per well. The CEM-NKR-CCR5-Luc cell assay was performed in the presence of Polybrene (10 μg/mL). Virus growth was determined on days 4 to 5 postinfection for reporter variants or days 5 to 11 for the other viruses. The reporter viruses were detected by a luciferase assay according to manufacturer protocols (Brite-Glo luciferase kit [Promega] for CEM-NKR-CCR5-Luc cells and Dual-Luciferase Reporter 1000 assay system [Promega] for the other cells), and luminescence was detected on a Wallac Trilux. The growth of clinical isolates in PBMCs was quantitated by reverse transcriptase activity in a 96-well scintillation proximity assay (SPA). Twenty microliters of culture supernatants was mixed with 40 μL of reaction cocktail (62.5 mM Tris-HCl [pH 7.8], 100 mM KCl, 0.0625% NP-40, 2.5 mM dithiothreitol [DTT], 6.25 mM MgCl2, 1 mM EGTA, 6.25 μg/mL of poly rA, 2.5 μg/mL of streptavidin SPA beads prebound with biotinylated-dT12-18, and 1 μCi of [^3H]TTP). Mixtures were incubated at 37°C for ∼3 h and quenched with 100 μl of 0.25 M EDTA per well. Luminescence was detected on a Wallac Trilux programmed for tritium counting with SPA beads in opaque plates. The growth of the reporter-free laboratory M-tropic strains and clinical isolates was monitored by a p24 enzyme-linked immunosorbent assay (ELISA; PerkinElmer Life Sciences, Waltham, MA) performed on culture supernatants. […] A 1:1,000 dilution of cell supernatant in PBS was generally observed to fall in the dynamic range of the endpoint signal.
Maximal percent inhibition values were calculated as MPI = 100 – (mean signals at the 2 highest concentrations of compound/mean signal of 2 no-drug control wells) × 100.

[1] = Human immunodeficiency virus 1, MT2, ΔV370, 10% FBS

## C=C(C)[C@@H]1CC[C@]2(NCCN3CCS(=O)(=O)CC3)CC[C@]3(C)[C@H](CC[C@@H]4[C@@]5(C)CC=C(C6=CC[C@@](CF)(C(=O)O)CC6)C(C)(C)[C@@H]5CC[C@]43C)[C@@H]12 [GSK’254]
Human immunodeficiency virus 1, MT2, read-out: PBA EC90, subtype B gag/pr 93US155 (V370T)
  EC90: 14 nM
Human immunodeficiency virus 1, MT2, read-out: PBA EC90, subtype B gag/pr 411-1-C (Wild-type)
  EC90: 7 nM
Human immunodeficiency virus 1, MT2, read-out: PBA EC90, subtype B gag/pr 220162 (Wild-type)
  EC90: 40 nM
Human immunodeficiency virus 1, MT2, read-out: PBA EC90, subtype B gag/pr 400024 (V370M)
  EC90: 10 nM
Human immunodeficiency virus 1, MT2, read-out: PBA EC90, subtype B gag/pr 400051 (V370A)
  EC90: 21 nM
Human immunodeficiency virus 1, MT2, read-out: PBA EC90, subtype B gag/pr 1000038 (V362I/V370A)
  EC90: 43 nM
Human immunodeficiency virus 1, MT2, read-out: PBA EC90, subtype B gag/pr 1000156 (V362I)
  EC90: 63 nM
Human immunodeficiency virus 1, MT2, read-out: PBA EC90, subtype B gag/pr 1900120 (V370M)
  EC90: 11 nM
Human immunodeficiency virus 1, MT2, read-out: PBA EC90, subtype B gag/pr 1900140 (V362I)
  EC90: 47 nM
Human immunodeficiency virus 1, MT2, read-out: PBA EC90, subtype C gag/pr 93MW690
  EC90: 17 nM
Human immunodeficiency virus 1, MT2, read-out: PBA EC90, subtype C gag/pr 97ZA003
  EC90: 24 nM
Human immunodeficiency virus 1, MT2, read-out: PBA EC90, subtype C gag/pr 98CN009
  EC90: 27 nM
Human immunodeficiency virus 1, MT2, read-out: PBA EC90, subtype C gag/pr 98IN026
  EC90: 16 nM
Human immunodeficiency virus 1, MT2, read-out: PBA EC90, subtype C gag/pr 11657-3
  EC90: 37 nM
Human immunodeficiency virus 1, MT2, read-out: PBA EC90, subtype C gag/pr 20635-4
  EC90: 40 nM
Human immunodeficiency virus 1, MT2, read-out: PBA EC90, subtype C gag/pr 1700141
  EC90: 19 nM
Human immunodeficiency virus 1, MT2, read-out: PBA EC90, subtype C gag/pr 1900543
  EC90: 24 nM
Human immunodeficiency virus 1, MT2, read-out: mean PBA EC90, 44-member library of genotyped chimeric and SDM viruses, protein-binding adjusted
  EC90: 33 nM
Human immunodeficiency virus 1, MT2, subtype B gag/pr 4NRR (Wild-type)
  EC50: 1 nM
Human immunodeficiency virus 1, MT2, subtype B gag/pr 28-MDR (Wild-type)
  EC50: 1 nM
Human immunodeficiency virus 1, MT2, subtype B gag/pr 92BR014 (V370M)
  EC50: 1 nM
Human immunodeficiency virus 1, MT2, subtype B gag/pr 92BR018 (V, QAΔ)
  EC50: 1 nM
Human immunodeficiency virus 1, MT2, subtype B gag/pr 92TH014 (V362I)
  EC50: 1 nM
Human immunodeficiency virus 1, MT2, subtype B gag/pr 92TH026 (V362I)
  EC50: 4 nM
Human immunodeficiency virus 1, MT2, subtype B gag/pr 92US072 (V362I)
  EC50: 1 nM
Human immunodeficiency virus 1, MT2, subtype B gag/pr 92US729 (Wild-type)
  EC50: 1 nM
Human immunodeficiency virus 1, MT2, subtype B gag/pr 93BR008 (V362I)
  EC50: 2 nM
Human immunodeficiency virus 1, MT2, subtype B gag/pr 93BR009 (V370M)
  EC50: 2 nM
Human immunodeficiency virus 1, MT2, subtype B gag/pr 93BR017 (V, QAΔ)
  EC50: 2 nM
Human immunodeficiency virus 1, MT2, subtype B gag/pr 93BR022 (V, QAΔ)
  EC50: 3 nM
Human immunodeficiency virus 1, MT2, subtype B gag/pr 93TH0647 (V362I)
  EC50: 2 nM
Human immunodeficiency virus 1, MT2, subtype B gag/pr 93US141 (V362I)
  EC50: 2 nM
Human immunodeficiency virus 1, MT2, subtype B gag/pr 93US155 (V370T)
  EC50: 1 nM
Human immunodeficiency virus 1, MT2, subtype B gag/pr 411-1-C (Wild-type)
  EC50: 0.5 nM
Human immunodeficiency virus 1, MT2, subtype B gag/pr 220162 (Wild-type)
  EC50: 2 nM
Human immunodeficiency virus 1, MT2, subtype B gag/pr 400024 (V370M)
  EC50: 1 nM
Human immunodeficiency virus 1, MT2, subtype B gag/pr 400051 (V370A)
  EC50: 1 nM
Human immunodeficiency virus 1, MT2, subtype B gag/pr 1000038 (V362I/V370A)
  EC50: 3 nM
Human immunodeficiency virus 1, MT2, subtype B gag/pr 1000156 (V362I)
  EC50: 4 nM
Human immunodeficiency virus 1, MT2, subtype B gag/pr 1900120 (V370M)
  EC50: 1 nM
Human immunodeficiency virus 1, MT2, subtype B gag/pr 1900140 (V362I)
  EC50: 1 nM
Human immunodeficiency virus 1, MT2, subtype C gag/pr 93MW690
  EC50: 1 nM
Human immunodeficiency virus 1, MT2, subtype C gag/pr 97ZA003
  EC50: 1 nM
Human immunodeficiency virus 1, MT2, subtype C gag/pr 98CN009
  EC50: 1 nM
Human immunodeficiency virus 1, MT2, subtype C gag/pr 98IN026
  EC50: 1 nM
Human immunodeficiency virus 1, MT2, subtype C gag/pr 10215-6
  EC50: 1 nM
Human immunodeficiency virus 1, MT2, subtype C gag/pr 11657-3
  EC50: 2 nM
Human immunodeficiency virus 1, MT2, subtype C gag/pr 20635-4
  EC50: 1 nM
Human immunodeficiency virus 1, MT2, subtype C gag/pr 20706-3
  EC50: 1 nM
Human immunodeficiency virus 1, MT2, subtype C gag/pr 1300495
  EC50: 1 nM
Human immunodeficiency virus 1, MT2, subtype C gag/pr 1700141
  EC50: 2 nM
Human immunodeficiency virus 1, MT2, subtype C gag/pr 1900543
  EC50: 1 nM
[1]
  EC50: 4.4 nM
  EC90: 7.8 nM
SDM A326T/V362I/V370A
  MPI: 69%
SDM A364V
  MPI: 70%
SDM R361K/V362I/L363M
  MPI: 91%
SDM T332S/V362I/prR41G
  MPI: 97%
SDM V362I/V370A
  MPI: 91%
SDM V370A
  MPI: 97%
SDM Wild type
  MPI: 98%
SDM ΔV370
  MPI: 96%
